# Test results reported in patent US20250170090A1, “METHOD FOR PREVENTING OR TREATING DISEASE OR DISORDER ASSOCIATED WITH ANTINEOPLASTIC AGENT” (ONQUALITY PHARMACEUTICALS CHINA LTD., priority 2022, published 2025).
# Read-outs that look alike come from different tables or passages of the source.
# What was measured:
# [1] = system: gastric epithelial cells (GES-1); experiment: CCK-8 cell viability: alleviation of proliferative toxicity of anti-tumor agents on GES-1 (Table 8-3); assay type: cell-based, human; conditions: NO-NSAID 100 μM
# Description: (§1) Experiments were conducted using various epithelial cells: Examples 47-51 used human immortalized keratinocytes (HaCaT) with corresponding results in Table 8-1; Examples 52-56 used human oral keratinocytes (HOK) with results in Table 8-2; Examples 57-61 used gastric epithelial cells (GES-1) with results in Table 8-3; Examples 62-66 used human intestinal epithelial cells (FHs 74 Int) with results in Table 8-4.
# (§2) The cultured cells were digested the suspended, counted, and seed into a 96-well plate with 5,000-10,000 cells per well. The wells are divided into the following groups: blank control group, anti-tumor agent group, anti-tumor agent+NO-NSAID group, anti-tumor agent solvent group, NO-NSAID solvent control group. Wherein each well of each group contained a basic medium, and the final liquid volume contained in each well was about 100 μL. The grouping situation was as follows: • 1) Blank control group: no solution was added except normally replacing the medium; • 2) Anti-tumor agent group: added the anti-tumor agent solution (the final concentration was shown in Table 8-1 to Table 8-4, the solvent of the anti-tumor agent solution was DMSO); • 3) Anti-tumor agent+NO-NSAID group: added the anti-tumor agent solution and the NO-NSAID solution (the final concentrations of anti-tumor agent and NO-NSAID were shown in Table 8-1 to Table 8-4, and according to the solubility of NO-NSAID, the solvent of NO-NSAID solution was selected as ethanol or sterile water, and minor volume differences in each group were adjusted by added the corresponding solvent); • 4) Anti-tumor agent solvent group: an equal volume of DMSO as contained in the corresponding anti-tumor agent solution in Group 2) was added; • 5) NO-NSAID control group: the same volume and type of solvent (for example, ethanol or sterile water) corresponding to the NO-NSAID contained in group 3) was added.
# (§3) The anti-tumor agent solvent group was not involved in data processing and was only used as a reference for evaluating experimental system error. The NO-NSAID solvent control group was used for data correction to eliminate the influence of the solvent on the results.
# (§4) After culturing for 24-48 hours, the Cell Counting Kit-8 (CCK-8) detection kit (C0037, Shanghai Beyotime Biotechnology Co., Ltd., Beyotime Biotechnology) was used to determine the cell viability. This allows for the calculation of the proliferative toxicity of anti-tumor agent on cell and the mitigating effect of NO-NSAID on proliferative toxicity. The results were statistically analyzed and plotted using GraphPad Prism 6.0 software and t test.
# [2] = system: human oral keratinocytes (HOK); experiment: CCK-8 cell viability: alleviation of proliferative toxicity of anti-tumor agents on HOK (Table 8-2); assay type: cell-based; conditions: NO-NSAID 100 μM
# Description: as §1, §2, §3, §4
# [3] = system: human intestinal epithelial cells (FHs 74 Int); experiment: CCK-8 cell viability: alleviation of proliferative toxicity of anti-tumor agents on FHs 74 Int (Table 8-4); assay type: cell-based; conditions: NO-NSAID 100 μM
# Description: as §1, §2, §3, §4
# [4] = system: hand-foot syndrome induced by anti-tumor agents; experiment: Prevention of hand-foot syndrome induced by anti-tumor agents in rats, NO-NSAID ointment on hind paws (Table 2-2); assay type: in vivo, SD rats; conditions: Rattus norvegicus, topical, read-out: Control rate; for responders at 1 %: ointment 1% wt
# From the text: A rat animal model was constructed, and the anti-tumor agents shown in Table 2-2 were respectively administered to 8-week-old female SD rats by daily oral gavage. […] Therefore, rats serve as an excellent animal model for simulating side effects (such as hand-foot syndrome) caused by anti-tumor agents.
# After the rats (about 200 g) were fed and adapted for one week, they were divided into a NO-NSAID group and a control group, with 10 rats in each group, and a gavage administration test was conducted. The various anti-tumor agents were dissolve in a mixed solution of Cremophor EL:ethanol=1:1. The anti-tumor agent solution were diluted with PBS to the required concentration (about 3 times with PBS solution) before gavage administration. After gavage, an ointment containing NO-NSAID was applied to the hind paws of the rats, while the control group was applied with a blank ointment. After application, the rats were placed in a fixed cylinder for 4 hours. After 4 hours, the rats were released and the residual ointment was wiped off with clean water, then the rats were returned to the cage. The gavage frequency of inhibitors was shown in Table 2-2, and NO-NSAID was only applied once a day. The gavage and application operations were repeated daily until the end of the experiment.
# Table 2-2 lists the animal experimental combinations of various anti-tumor agents and NO-NSAID ointments, as well as the corresponding experimental results (wherein the value in the control rate column=the hand-foot syndrome incidence rate in the blank group−the hand-foot syndrome incidence rate in the treatment group).
# [5] = system: hand-foot syndrome caused by anti-tumor agents; experiment: Treatment of established hand-foot syndrome caused by anti-tumor agents in rats (Table 4); assay type: in vivo; conditions: Encorafenib 80 mg/kg once every two days; ointment 1% wt; Days 7
# Description: After the rats (about 200 g) were fed and adapted for one week, the rats were divided into groups of 10 rats for gavage administration experiment. The anti-tumor agent was dissolved in a mixed solution of Cremophor EL:ethanol=1:1, and diluted with PBS to the required concentration (diluted about 3 times with PBS solution) before gavage. […] Specific experimental procedures followed those outlined in the prevention experiment. […] Table 4 lists the animal experiments using various anti-tumor agents and NO-NSAID ointment, as well as the corresponding experimental results (where the value in the control rate column=the incidence rate of hand-foot syndrome in the blank group−the incidence rate of hand-foot syndrome in the treatment group).
smiles,measurement,setting,value
CC(C)Cc1ccc(C(C)C(=O)OCO/N=[N+](\[O-])N(C)C)cc1 (stereo not shown) [Compound A4],Response rate % (average),[1]; Afatinib (10 μM),16%
same,Response rate % (average),[1]; Cabozantinib (5 μM),29%
same,Response rate % (average),[1]; Dabrafenib (10 μM),6%
same,Response rate % (average),[1]; Everolimus (5 μM),23%
same,Response rate % (average),[1]; Infigratinib (15 μM),36%
same,Response rate % (average),[1]; Lapatinib (5 μM),22%
same,Response rate % (average),[1]; Lenvatinib (10 μM),36%
same,Response rate % (average),[1]; Olmutinib (10 μM),21%
same,Response rate % (average),[1]; Regorafenib (5 μM),29%
same,Response rate % (average),[1]; Selumetinib (5 μM),2%
same,Response rate % (average),[1]; Sorafenib (5 μM),22%
same,Response rate % (average),[1]; Sunitinib (5 μM),0%
same,Response rate % (average),[2]; Afatinib (10 μM),34%
same,Response rate % (average),[2]; Cabozantinib (5 μM),24%
same,Response rate % (average),[2]; Dabrafenib (10 μM),2%
same,Response rate % (average),[2]; Everolimus (5 μM),−3%
same,Response rate % (average),[2]; Infigratinib (15 μM),18%
same,Response rate % (average),[2]; Lapatinib (5 μM),0%
same,Response rate % (average),[2]; Lenvatinib (10 μM),33%
same,Response rate % (average),[2]; Olmutinib (10 μM),24%
same,Response rate % (average),[2]; Regorafenib (5 μM),15%
same,Response rate % (average),[2]; Selumetinib (5 μM),−2%
same,Response rate % (average),[2]; Sorafenib (5 μM),29%
same,Response rate % (average),[2]; Sunitinib (5 μM),11%
same,Response rate % (average),[3]; Afatinib (10 μM),33%
same,Response rate % (average),[3]; Cabozantinib (5 μM),28%
same,Response rate % (average),[3]; Dabrafenib (10 μM),−9%
same,Response rate % (average),[3]; Everolimus (5 μM),18%
same,Response rate % (average),[3]; Infigratinib (15 μM),17%
same,Response rate % (average),[3]; Lapatinib (5 μM),26%
same,Response rate % (average),[3]; Lenvatinib (10 μM),38%
same,Response rate % (average),[3]; Olmutinib (10 μM),16%
same,Response rate % (average),[3]; Regorafenib (5 μM),31%
same,Response rate % (average),[3]; Selumetinib (5 μM),14%
same,Response rate % (average),[3]; Sorafenib (5 μM),24%
same,Response rate % (average),[3]; Sunitinib (5 μM),23%
same,responders at 0.5 %,"[4]; 120 h, Sorafenib 80 mg/kg once a day, ointment 0.50% wt, Days 5",42.9%
same,responders at 2 %,"[4]; 120 h, Sorafenib 80 mg/kg once a day, ointment 2% wt, Days 5",71.4%
CC(=O)Oc1ccccc1C(=O)OCc1no[n+]([O-])c1C(N)=O [Compound A6],Response rate,[5],16.67%
same,responders at 1 %,"[4]; 120 h, Sorafenib 80 mg/kg once a day, Days 5",66.7%
same,responders at 1 %,"[4]; 360 h, Encorafenib 80 mg/kg once a day, Days 15",40%
same,responders at 1 %,"[4]; 432 h, Cabozantinib 50 mg/kg once a day, Days 18",40%
same,responders at 3 %,"[4]; 432 h, Cabozantinib 50 mg/kg once a day, ointment 3% wt, Days 18",42.9%
